The values that follow come from DBAASP.

Holding throughout (test): ≥ marks a high value that may be exact or a test limit, other limits are often not marked, values filed in µg/mL are converted to µM
In assay [1] the test system is Listeria monocytogenes KCTC 19111.
For assay [2], the system named is Salmonella typhimurium KCTC 1926.
In assay [3] the test system is Pseudomonas aeruginosa ATCC 15692.
Assay [4] has as its system Staphylococcus aureus ATCC 25923.
In assay [5] the test system is Escherichia coli ATCC 25922.
Assay [6] deals with Staphylococcus epidermidis KCTC 1917.
Assay [7] relates to Escherichia coli CCARM 1229.
Assay [8] relates to Acinetobacter baumannii CCARM 12035.
Assay [9] deals with Pseudomonas aeruginosa CCARM 2002.
Assay [10] deals with Escherichia coli KCTC 1682.
The subject of assay [11] is Bacillus subtilis KCTC 3068.
Assay [12] deals with Pseudomonas aeruginosa KCTC 2004.
Assay [13] concerns Staphylococcus aureus CCARM 3126.
Assay [14] has as its system Acinetobacter baumannii KCTC 2508.
Assay [15] concerns Salmonella typhimurium CCARM 8007.
Assay [16] relates to Staphylococcus aureus KCTC 1621.
For assay [17], the system named is Klebsiella pneumoniae Oschner KP-1.
Assay [18] has as its system Escherichia coli BW25113.
For assay [19], the system named is Escherichia coli ARLG-1012.
Assay [20] concerns Enterobacter asburiae St. L P23.
The subject of assay [21] is Enterobacter cloacae BB2013-32.
The test system of assay [22] is Escherichia coli BB2013-30.
Assay [23] relates to Pseudomonas aeruginosa ATCC 27853.
Assay [24] concerns Enterobacter cloacae BB2012-181.
Assay [25] concerns Klebsiella pneumoniae J3702.
Assay [26] concerns Escherichia coli JW55034.
Assay [27] relates to Pseudomonas aeruginosa BB2013-100.
Assay [28] relates to Klebsiella pneumoniae BB2009-209.
For assay [29], the system named is Klebsiella aerogenes St. L P63.
Assay [30] has as its system Acinetobacter baumannii Josh 28.
For assay [31], the system named is Acinetobacter baumannii Josh 230.
Assay [32] relates to Pseudomonas aeruginosa J4228.
Assay [33] deals with Enterobacter cloacae St. L P23.
The subject of assay [34] is Bacillus subtilis 168 HT.
Assay [35] has as its system Escherichia coli MG1655.
Assay [36] deals with Pseudomonas aeruginosa H1001.

Molecules are shown by their SMILES. ≈ marks a conversion by molar mass, not a printed value.

With `CC(C)[C@H](NC(=O)[C@H](Cc1c[nH]c2ccccc12)NC(=O)[C@H](CCCCN)NC(=O)[C@H](CCCCN)NC(=O)[C@@H](NC(=O)[C@H](Cc1c[nH]c2ccccc12)NC(=O)[C@H](CCCCN)NC(=O)[C@H](CCCCN)NC(=O)[C@@H](NC(=O)[C@H](Cc1c[nH]c2ccccc12)NC(=O)[C@@H](N)CCCCN)C(C)C)C(C)C)C(=O)N[C@@H](CCCCN)C(N)=O` [KWVKKWVKKWVK], the MIC in assay [1] was 4 µM (≈ 6.57 µg/mL); in assay [2] it was 2 µM (≈ 3.28 µg/mL); in [3], 4 µM (≈ 6.57 µg/mL); in assay [4] it was 16 µM (≈ 26.3 µg/mL); in assay [5], 1 µM (≈ 1.64 µg/mL); in assay [6], 4 µM (≈ 6.57 µg/mL).
`CC[C@H](C)[C@H](NC(=O)[C@H](CCCCN)NC(=O)[C@H](Cc1c[nH]c2ccccc12)NC(=O)[C@@H](N)CCCN=C(N)N)C(=O)N[C@@H](Cc1ccccc1)C(=O)N[C@@H](CCCCN)C(=O)N[C@@H](CCCCN)C(=O)N[C@@H](C)C(=O)N[C@@H](C)C(=O)N[C@@H](CCCCN)C(=O)N[C@@H](CCCCN)C(=O)N[C@@H](C)C(N)=O` [RWKIFKKAAKKA]: the MIC in assay [7] was at least 32 µM; in [8], 16 µM (≈ 23.6 µg/mL); in assay [2], at least 32 µM; in assay [9] it was at least 32 µM; in [10], 8 µM (≈ 11.8 µg/mL); in [11], 16 µM (≈ 23.6 µg/mL). For the same molecule, the MIC in assay [12] is 8 µM (≈ 11.8 µg/mL); in assay [13] it was at least 32 µM; in [14], at least 32 µM; in assay [15], 16 µM (≈ 23.6 µg/mL); in [16] it was 8 µM (≈ 11.8 µg/mL); in [6] it was at least 32 µM.
Take `CC[C@H](C)[C@H](NC(=O)[C@H](C)N)C(=O)N[C@@H](CCCCN)C(=O)N[C@H](C(=O)N[C@@H](CCCN=C(N)N)C(=O)N[C@@H](CCCCN)C(=O)N[C@@H](CC(C)C)C(=O)N[C@@H](Cc1ccccc1)C(=O)N[C@@H](CCCCN)C(=O)N[C@@H](CCCCN)C(=O)N[C@@H](CC(C)C)C(=O)N[C@@H](CC(C)C)C(=O)N[C@@H](CCCN=C(N)N)C(N)=O)[C@@H](C)CC` [AIKIRKLFKKLLR]: the MIC was determined as 19.7 µM (≈ 32 µg/mL) in [17]; 4.92 µM (≈ 8 µg/mL) in assay [18]; 4.92 µM (≈ 8 µg/mL) in [19]; 19.7 µM (≈ 32 µg/mL) in [20]; 19.7 µM (≈ 32 µg/mL) in assay [21]; 9.83 µM (≈ 16 µg/mL) in [22]. The MIC in assay [23] is 2.46 µM (≈ 4 µg/mL); in assay [24], 19.7 µM (≈ 32 µg/mL); in assay [25], 19.7 µM (≈ 32 µg/mL); in assay [26], 4.92 µM (≈ 8 µg/mL); in assay [27], 19.7 µM (≈ 32 µg/mL); in [28], 19.7 µM (≈ 32 µg/mL). In addition, the MIC in assay [29] was found to be 19.7 µM (≈ 32 µg/mL); in assay [30], 2.46 µM (≈ 4 µg/mL); in assay [31], 9.83 µM (≈ 16 µg/mL); in [32], 4.92 µM (≈ 8 µg/mL); in [33], 19.7 µM (≈ 32 µg/mL).
Regarding `CC[C@H](C)[C@H](NC(=O)[C@H](Cc1cnc[nH]1)NC(=O)[C@H](CCCCN)NC(=O)[C@H](CCCCN)NC(=O)[C@H](CC(C)C)NC(=O)[C@H](CCCCN)NC(=O)[C@H](CCCCN)NC(=O)[C@H](CC(C)C)NC(=O)[C@H](Cc1ccccc1)NC(=O)[C@H](Cc1ccccc1)NC(=O)[C@H](CCCCN)NC(=O)[C@@H](NC(=O)CN)[C@@H](C)CC)C(N)=O` [GIKFFLKKLKKHI], the MIC in assay [17] is 20 µM (≈ 32 µg/mL); in assay [18], 5 µM (≈ 8 µg/mL); in assay [19] it was 5 µM (≈ 8 µg/mL); in assay [20] it was 20 µM (≈ 32 µg/mL); in assay [21] it was 10 µM (≈ 16 µg/mL); in assay [22] it was 10 µM (≈ 16 µg/mL). The MIC came to 5 µM (≈ 8 µg/mL) in assay [23]; 20 µM (≈ 32 µg/mL) in assay [24]; 20 µM (≈ 32 µg/mL) in assay [25]; 5 µM (≈ 8 µg/mL) in assay [26]; 20 µM (≈ 32 µg/mL) in assay [27]; 20 µM (≈ 32 µg/mL) in assay [28]. In addition, the MIC in assay [29] was 10 µM (≈ 16 µg/mL); in assay [30], 1.25 µM (≈ 2 µg/mL); in assay [31], 2.5 µM (≈ 4 µg/mL); in assay [32], 10 µM (≈ 16 µg/mL); in [33], 20 µM (≈ 32 µg/mL).
On to `CC[C@H](C)[C@H](NC(=O)CNC(=O)[C@H](C)NC(=O)[C@H](Cc1cnc[nH]1)NC(=O)[C@@H](NC(=O)[C@H](CCCCN)NC(=O)[C@H](Cc1ccc(O)cc1)NC(=O)[C@@H]1CCCN1C(=O)[C@@H](NC(=O)[C@H](CC(C)C)NC(=O)[C@H](CCCCN)NC(=O)[C@H](CCCCN)NC(=O)[C@@H](N)Cc1c[nH]c2ccccc12)C(C)C)[C@@H](C)CC)C(=O)O` [WKKLVPYKIHAGI], for which the MIC in assay [34] and in assay [35] was at least 82 µM throughout.
`NC(=O)[C@H](CCCN=C(N)N)NC(=O)[C@H](CCCN=C(N)N)NC(=O)[C@H](Cc1c[nH]c2ccccc12)NC(=O)[C@H](CCCN=C(N)N)NC(=O)[C@H](Cc1c[nH]c2ccccc12)NC(=O)[C@H](Cc1c[nH]c2ccccc12)NC(=O)[C@@H](N)CCCN=C(N)N` [RWWRWRR]: the MIC in [36] is at least 208 µM.
Turning to `CC(C)C[C@H](NC(=O)[C@H](Cc1ccc(O)cc1)NC(=O)[C@@H]1CCCN1C(=O)[C@@H]1CCCN1C(=O)[C@H](CCCCN)NC(=O)[C@H](CC(=O)O)NC(=O)[C@@H](N)C(C)C)C(=O)N1CCC[C@H]1C(=O)N[C@@H](CCCN=C(N)N)C(=O)N1CCC[C@H]1C(=O)N[C@@H](CCCN=C(N)N)C(=O)N1CCC[C@H]1C(=O)N1CCC[C@H]1C(=O)N[C@@H](CCCN=C(N)N)C(=O)N[C@@H](CCCN=C(N)N)C(=O)N[C@@H](CS)C(=O)N[C@@H](Cc1ccc(O)cc1)C(=O)N[C@@H](CC(N)=O)C(=O)N[C@@H](CCCN=C(N)N)C(=O)NCC(=O)O` [VDKPPYLPRPRPPRRCYNRG], the MIC in assay [36] was determined as 0.0328 µM (≈ 0.08 µg/mL).
With `CC[C@H](C)[C@H](NC(=O)[C@H](CCCCN)NC(=O)[C@H](Cc1c[nH]c2ccccc12)NC(=O)[C@@H](N)CCCN=C(N)N)C(=O)N[C@@H](Cc1ccccc1)C(=O)N[C@@H](CCCCN)C(=O)N[C@@H](CCCCN)C(=O)N[C@@H](C)C(=O)N[C@@H](C)C(=O)N[C@@H](CCCCN)C(=O)N[C@@H](CCCCN)C(=O)NCC(N)=O` [RWKIFKKAAKKG], the MIC in assay [7] is at least 32 µM; in assay [8] it was 16 µM (≈ 23.4 µg/mL); in assay [2], 16 µM (≈ 23.4 µg/mL); in assay [9], 16 µM (≈ 23.4 µg/mL); in assay [10] it was 8 µM (≈ 11.7 µg/mL); in assay [11], 16 µM (≈ 23.4 µg/mL). Further, the MIC is 8 µM (≈ 11.7 µg/mL) in assay [12]; 16 µM (≈ 23.4 µg/mL) in [13]; at least 32 µM in [14]; 16 µM (≈ 23.4 µg/mL) in [15]; 16 µM (≈ 23.4 µg/mL) in [16]; at least 32 µM in assay [6].

As usually defined, the MIC is the smallest concentration in the dilution series that meets the test's criterion for growth inhibition. Low values mean greater potency, high ones weaker potency.
